Paper PMC9818789, “Identification of Small-Molecule Bioactive Constituents from the Leaves of Vaccinium bracteatum Confirms It as a Potential Functional Food with Health Benefits” (Foods, 2023)

Tests used:
[1] = DPPH radical scavenging assay; settings: mean ± SD (n = 3); NA = not active (<50% radical scavenging activity at the highest testing concentration of 200 μM); read-out: DPPH free radical scavenging activity IC50
Description: The antioxidant effect of the VBL constituents was assessed by besting their free radical scavenging activity with the ABTS (diammonium 2,2′-azino-bis (3-ethylbenzothiazoline-6-sulphonate) and DPPH (1,1-diphenyl-2-picrylhydrazyl) methods, according to the protocols described previously, and ascorbic acid was used as the positive control.

[2] = ABTS radical scavenging assay; settings: mean ± SD (n = 3); NA = not active (<50% radical scavenging activity at the highest testing concentration of 200 μM); read-out: ABTS free radical scavenging activity IC50
Description: The antioxidant effect of the VBL constituents was assessed by besting their free radical scavenging activity with the ABTS (diammonium 2,2′-azino-bis (3-ethylbenzothiazoline-6-sulphonate) and DPPH (1,1-diphenyl-2-picrylhydrazyl) methods, according to the protocols described previously [10], and ascorbic acid was used as the positive control.

[3] = test system: PC12 cells; assay: Neuroprotective assay: 6-OHDA-induced PC12 cell injury, MTT; format: cell-based; settings: for Neuroprotective effect against 6-OHDA-induced PC12 cell injury (cell viability): pretreated 12 h, 6-OHDA 150 μM for 13 h
Description: The cell cultures were prepared according to the method described by Sergi et al.. Briefly, the protection of compounds 1–8 on 6-hydroxydopamine (6-OHDA)-induced PC 12 cell injury was assessed by MTT (3-(4,5-dimethylthiazol-2-yl)-2,5-diphenyltetrazolium bromide) assay, and N-acetylcysteine (NAC, 50 μM) was used as the positive control. PC12 cells were cultured in RPMI 1640 medium supplemented with 10% fetal bovine serum (FBS), and they were incubated at 37
C in a humidified environment containing 5% CO2 and then cultured in 96-well plates at a density of 1.5 × 10^5 cells/well in 100 μL for 24 h. The neuron cells were first pretreated with various concentrations (25, 50, 100 μM) of tested compounds for 12 h before 6-OHDA (150 μM) treatment for further 13 h. Then, 10 μL of MTT was added to each well and incubated for another 4 h, and the crystals were dissolved with DMSO. The optical density at 490 nm was detected by a plate reader. The cell viability was lastly measured to evaluate the compounds’ protective effect, which was expressed as the percentage of the control group.

[4] = test system: NO production in RAW264.7 macrophages; assay: NO production inhibitory assay, lipopolysaccharide-induced macrophages; format: cell-based; settings: Mus musculus, lipopolysaccharide-induced murine macrophages, read-out: NO production inhibition IC50
Description: The nitric oxide (NO) production inhibitory assay was conducted in murine RAW264.7 macrophages as we recorded in an early report, with quercetin as the reference compound.

Compound | IC50 [1] | IC50 [2] | also measured
O=C1O[C@H]([C@@H](O)CO)C(O)=C1O [Ascorbic acid, ascorbic acid, reference compound] | 13.3 ± 1.86 µM | 24.3 ± 0.41 µM | 
COC1OC2CC3C(O)CC(COC(=O)C=Cc4ccc(O)cc4)(O2)C13 (stereo not shown) [Compound 1] |  | 15.3 ± 1.37 µM | Neuroprotective effect compared with the positive control NAC ([3]; compound 50 μM, NAC 50 μM, 6-OHDA 150 μM): comparable to the positive control NAC; Neuroprotective effect against 6-OHDA-induced PC12 cell injury (cell viability) ([3]; compound 50 μM): apparent protective activity
CO[C@@H]1O[C@@H]2C[C@@H]3[C@H]1[C@@](COC(=O)/C=C\c1ccc(O)cc1)(C[C@H]3O)O2 [Compound 2] |  | 34.2 ± 3.03 µM | 
O=C(/C=C/c1ccc(O)cc1)OC[C@@]12C[C@@H](O)[C@@H]3C[C@@H](O[C@@H](O)[C@@H]31)O2 [Compound 3] |  | 35.6 ± 1.04 µM | 
O=C(/C=C\c1ccc(O)cc1)OC[C@@]12C[C@@H](O)[C@@H]3C[C@@H](O[C@@H](O)[C@@H]31)O2 [Compound 4] |  | 19.4 ± 0.24 µM | 
COC1CC2C(O)CC(O)(COC(=O)C=Cc3ccc(O)cc3)C2C(OC)O1 (stereo not shown) [Compound 5] |  | 32 ± 1.76 µM | Neuroprotective effect against 6-OHDA-induced PC12 cell injury (cell viability) ([3]; compound 50 μM): apparent protective activity
NCCc1cc(O)c(O)cc1O [Compound 6-OHDA, 6-hydroxydopamine, reference compound] |  |  | Inhibition ratio of PC12 cell viability (6-OHDA-induced cell injury) ([3]; 6-OHDA at 150 μM): 52.68%
CO[C@H]1C[C@@H]2[C@H]([C@H](OC)O1)[C@@](O)(COC(=O)/C=C\c1ccc(O)cc1)C[C@H]2O [Compound 6] |  | 28.2 ± 0.63 µM | Neuroprotective effect against 6-OHDA-induced PC12 cell injury (cell viability) ([3]; compound 50 μM): apparent protective activity
CO[C@H]1C[C@H]2C=C[C@](O)(COC(=O)/C=C/c3ccc(O)cc3)[C@H]2[C@H](OC)O1 [Compound 7] |  | 50.6 ± 2.97 µM | Neuroprotective effect against 6-OHDA-induced PC12 cell injury (cell viability) ([3]; compound 50 μM): apparent protective activity
COC1CC2C(O)CC(O)(COC(=O)C=Cc3ccc(O)cc3)C2C(OC)O1 (stereo not shown) [Compound 8] |  | 39.1 ± 2.3 µM | 
COc1cc(CCCO)ccc1O[C@@H](CO)[C@H](O)c1cc(OC)c(O)c(OC)c1 [Compound 9a] | 47.5 ± 7.24 µM | 9.39 ± 0.97 µM | 
COc1cc(CCCO)ccc1O[C@H](CO)[C@@H](O)c1cc(OC)c(O)c(OC)c1 [Compound 9b] | 52.6 ± 6.89 µM | 10.1 ± 0.67 µM | 
COc1cc([C@@H]2Oc3c(OC)cc(CCCO)cc3[C@H]2CO)ccc1O [Compound 14a, dihydrodehydrodiconiferyl alcohol] |  | 12.3 ± 1.82 µM | IC50 [4]: 52.2 ± 6.17 µM
COc1cc([C@@H]2Oc3c(OC)cc(CCCO)cc3[C@H]2CO)ccc1O [Compound 14b, dihydrodehydrodiconiferyl alcohol] |  | 14.1 ± 1.3 µM | 
COc1cc(CCCO)cc(OC)c1OC(CO)CO [Compound 22, 3-deoxyartselaenin C] | 20.2 ± 3.53 µM | 168 ± 4.34 µM | 

More lines, main results first:

IC50 [1] | IC50 [2] | Compound | also measured
 | 19.7 ± 0.61 µM | COc1cc([C@H](O)[C@@H](CO)Oc2ccc(CCCO)cc2OC)ccc1O [Compound 10a, erythro-4,7,9,9′-tetrahydroxy-3,3′-dimethoxy-8,4′-oxyneolignane] | 
 | 16.2 ± 2.65 µM | COc1cc([C@@H](O)[C@H](CO)Oc2ccc(CCCO)cc2OC)ccc1O [Compound 10b, erythro-4,7,9,9′-tetrahydroxy-3,3′-dimethoxy-8,4′-oxyneolignane] | 
98.7 ± 1.78 µM | 12.1 ± 1.42 µM | COc1cc([C@@H](O)[C@@H](CO)Oc2ccc(CCCO)cc2OC)ccc1O [Compound 11a, threo-4,7,9,9′-tetrahydroxy-3,3′-dimethoxy-8,4′-oxyneolignane] | 
105 ± 4.11 µM | 14.8 ± 1.25 µM | COc1cc([C@H](O)[C@H](CO)Oc2ccc(CCCO)cc2OC)ccc1O [Compound 11b, threo-4,7,9,9′-tetrahydroxy-3,3′-dimethoxy-8,4′-oxyneolignane] | 
31.2 ± 1.9 µM | 9.54 ± 0.64 µM | COc1cc([C@H]2Oc3c(O)cc(CCCO)cc3[C@@H]2CO)ccc1O [Compound 12a, cedrusin] | 
44.3 ± 2.05 µM | 12.3 ± 0.24 µM | COc1cc([C@@H]2Oc3c(O)cc(CCCO)cc3[C@H]2CO)ccc1O [Compound 12b, cedrusin] | 
 | 21.7 ± 3.5 µM | COc1ccc([C@H]2Oc3c(O)cc(CCCO)cc3[C@@H]2CO)cc1OC [Compound 13a, 4-O-methylcedrusin] | 
 | 37.1 ± 8.17 µM | COc1ccc([C@@H]2Oc3c(O)cc(CCCO)cc3[C@H]2CO)cc1OC [Compound 13b, 4-O-methylcedrusin] | 
40.4 ± 6.09 µM | 17.2 ± 0.89 µM | COc1cc([C@H]2Oc3c(OC)cc(CCCO)cc3[C@@H]2CO)cc(OC)c1O [Compound 15a, 5-methoxydihydrodehydrodiconiferyl alcohol] | 
55.1 ± 2.43 µM | 24.2 ± 3.92 µM | COc1cc([C@@H]2Oc3c(OC)cc(CCCO)cc3[C@H]2CO)cc(OC)c1O [Compound 15b, 5-methoxydihydrodehydrodiconiferyl alcohol] | 
47.9 ± 6.6 µM | 11.1 ± 3.31 µM | COc1cc(C2c3c(cc(OC)c(O)c3OC)CC(CO)C2CO)cc(OC)c1O (stereo not shown) [Compound 16a, polystachyol] | 
96.2 ± 8.34 µM | 26.2 ± 2.24 µM | COc1cc(C2c3c(cc(OC)c(O)c3OC)CC(CO)C2CO)cc(OC)c1O (stereo not shown) [Compound 16b, polystachyol] | 
40.8 ± 5.98 µM | 5.96 ± 0.3 µM | COc1cc(C2OC(c3ccc(O)c(OC)c3)C(CO)C2CO)ccc1O (stereo not shown) [Compound 17a, neo-olivil] | 
62.9 ± 5.65 µM | 7.75 ± 0.71 µM | COc1cc(C2OC(c3ccc(O)c(OC)c3)C(CO)C2CO)ccc1O (stereo not shown) [Compound 17b, neo-olivil] | 
17.3 ± 7.51 µM | 6.87 ± 0.54 µM | COc1cc(C2OC(c3cc(OC)c(O)c(OC)c3)C(CO)C2CO)cc(OC)c1O (stereo not shown) [Compound 18a, icariol A2] | 
17.9 ± 4.58 µM |  | COc1cc(C2OC(c3cc(OC)c(O)c(OC)c3)C(CO)C2CO)cc(OC)c1O (stereo not shown) [Compound 18b, icariol A2] | 
